This passage reports IC50 and inhibition results from ChEMBL document CHEMBL1134121, “Biphenyls as surrogates of the steroidal backbone. Part 2: discovery of a novel family of non-steroidal 5-alpha-reductase inhibitors” (Bioorg Med Chem Lett, 2001).

Each structure is given as a SMILES string. pIC50: −log10 of the molar value.

One assay concerns the target T1, 3-oxo-5-alpha-steroid 4-dehydrogenase 2 (Homo sapiens, UniProt P31213).
T1 sequence (P31213 whole entry): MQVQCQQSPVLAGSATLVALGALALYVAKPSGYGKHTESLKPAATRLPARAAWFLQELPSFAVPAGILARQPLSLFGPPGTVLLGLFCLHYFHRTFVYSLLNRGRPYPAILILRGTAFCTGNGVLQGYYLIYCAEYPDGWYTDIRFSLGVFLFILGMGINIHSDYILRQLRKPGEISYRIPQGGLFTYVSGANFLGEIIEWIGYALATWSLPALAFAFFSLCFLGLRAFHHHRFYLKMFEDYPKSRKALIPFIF
Put plainly: Compound was tested for the inhibition of Steroid 5-alpha-reductase type 2 of human prostates. It is filed as tissue-based, Prostate gland.
Conditions: not given
In general, pIC50 refers to −log10 of the IC50, conventionally taken in molar units. In the case of `CC(C)c1cc(-c2ccc(C(=O)O)cc2)cc(C(C)C)c1OCC(=O)N(C(C)C)C(C)C`, the pIC50 is 7.15.
The same measure, in the same setting: then `CC(C)N(C(=O)COc1ccc(-c2ccc(C(=O)O)cc2Cl)cc1)C(C)C`, with 6.06; and `CC(C)N(C(=O)COc1ccc(-c2ccc(C(=O)O)cc2)cc1)C(C)C`, with 6.08.
The same measure, in the same setting: then `CC(C)N(C(=O)COc1ccc(-c2ccc(C(=O)O)cc2C(F)(F)F)cc1)C(C)C`, with 6.24; and `Cc1cc(C(=O)O)cc(C)c1-c1ccc(OCC(=O)N(C(C)C)C(C)C)cc1`, with less than 5.00; and `CC(C)N(C(=O)COc1ccc(-c2c(Cl)cc(C(=O)O)cc2Cl)cc1)C(C)C`, with less than 5.00.
The same measure, in the same setting: the same measure for `CC(C)N(C(=O)COc1ccc(-c2c(F)cc(C(=O)O)cc2F)cc1)C(C)C`: less than 5.00; for `CC(C)N(C(=O)COc1cc(Cl)c(-c2ccc(C(=O)O)cc2)c(Cl)c1)C(C)C`: less than 5.00.

A further assay deals with T2, 3-oxo-5-alpha-steroid 4-dehydrogenase 2 (Homo sapiens) (UniProt P31213).
T2 sequence (whole entry): T1 sequence (P31213 whole entry)
Put plainly: Compound was tested for the inhibition of Steroid 5-alpha-reductase type 2 of human prostates at a concentration of 10e-6 M. To be noted: Prostate gland. It is filed as tissue-based.
One may read the inhibition as the share of the control response that was lost under treatment. `CC(C)N(C(=O)COc1ccc(-c2ccc(C(=O)O)cc2)cc1)C(C)C`: the inhibition is 57.5%.
Take `CC(C)N(C(=O)c1ccc(-c2ccc(C(=O)O)cc2)cc1)C(C)C`: the inhibition came to 32.5%.
On the same count and under the same terms, then `CC(C)N(C(=O)Cc1ccc(-c2ccc(C(=O)O)cc2)cc1)C(C)C`, with 37%; and `CC(C)N(C(=O)c1cc(N)c(-c2ccc(C(=O)O)cc2)c(N)c1)C(C)C`, with 0%; and `CC(C)N(C(=O)c1cc([N+](=O)[O-])c(-c2ccc(C(=O)O)cc2)c([N+](=O)[O-])c1)C(C)C`, with 0%.
Regarding `CC(C)N(C(=O)c1cc(I)c(-c2ccc(C(=O)O)cc2)c([N+](=O)[O-])c1)C(C)C`, the inhibition is 0%.
`CC(C)N(C(=O)c1cc(I)c(-c2ccc(C(=O)O)cc2)c(I)c1)C(C)C` returned an inhibition of 0%.
`CC(C)N(C(=O)c1cc(Br)c(-c2ccc(C(=O)O)cc2)c(Br)c1)C(C)C` registered an inhibition of 0%.
For `CC(C(=O)N(C(C)C)C(C)C)c1ccc(-c2ccc(C(=O)O)cc2)cc1` (stereo not drawn), the inhibition turned out to be 26.9%.

A further assay has as its target T1, 3-oxo-5-alpha-steroid 4-dehydrogenase 2. Put plainly: Compound was tested for the inhibition of type 2 5-alpha-reductase of human prostates. It is filed as tissue-based, Prostate gland.
Conditions: not given
With `CC(C)N(C(=O)[C@H]1CC[C@H]2[C@@H]3CCc4cc(C(=O)O)ccc4[C@H]3CC[C@]12C)C(C)C`, the negative-log IC50 (pIC50) was 8.68.
Same read-out and setting: the same measure for `CC(C)N(C(=O)COc1c(F)cc(-c2ccc(C(=O)O)cc2)cc1[N+](=O)[O-])C(C)C`: 8.01.
Compound `O=C(COc1c(F)cc(-c2ccc(C(=O)O)cc2)cc1[N+](=O)[O-])NC(c1ccccc1)(c1ccccc1)c1ccccc1` showed a pIC50 of 7.04.
`CCc1cc(OCC(=O)N(C(C)C)C(C)C)ccc1-c1ccc(C(=O)O)cc1` showed a negative-log IC50 (pIC50) of 5.70.
On the same count and under the same terms, the same measure for `CC(C)N(C(=O)[C@H]1CCC2C3CC[C@H]4NC(=O)CC[C@]4(C)C3CC[C@@]21C)C(C)C` (stereo partly drawn): 7.39; for `CCc1cc(-c2ccc(C(=O)O)cc2)ccc1OCC(=O)N(C(C)C)C(C)C`: 6.46.
